From patent publication US20240024403A1, “Compositions and Methods for Managing Weight” (Unigen, Inc., priority 2012, published 2024)
pEC50, pIC50: −log10 of the molar value. Where two headings read alike, the source gives them in different places.

Legend:
[1] = target: human cannabinoid CB2 receptor protein (Homo sapiens (Human), UniProt P34972); assay: CB2 receptor-ligand binding assay ([3H] WIN-55,212-2)
Experimental: Briefly, human cannabinoid CB2 receptor protein expressed in CHO-K1 cells were used in modified HEPES buffer (pH 7.0). A 30 μg aliquot of CB2-membrane was mixed with tritium labeled nonspecific CB1 agonist [3H] WIN-55,212-2 (2.4 nM) and test samples of Kuwanon G and Albanin G compounds, or just the nonspecific ligand R (+)-WIN-55,212-2 (10 μM) (positive control) were incubated in incubation buffer (20 mM HEPES (pH 7.0), 0.5 mg/ml BSA) for 90 minutes at 37° C. After incubation, the membranes were filtered and washed; the filters were then counted to determine the amount of radiolabeled [^3H] WIN-55,212-2 that was specifically bound to the CB2-membrane.

[2] = target: T1, human CB1 receptor (Homo sapiens (Human), UniProt P21554); assay: CB1 receptor binding assay ([3H] SR141716A); conditions: for inhibition at 20 µg/mL: read-out: % Inhibition CB1-Binding; for CB1 selectivity over CB2: from CB1 and CB2 IC50
T1 sequence (P21554 whole entry): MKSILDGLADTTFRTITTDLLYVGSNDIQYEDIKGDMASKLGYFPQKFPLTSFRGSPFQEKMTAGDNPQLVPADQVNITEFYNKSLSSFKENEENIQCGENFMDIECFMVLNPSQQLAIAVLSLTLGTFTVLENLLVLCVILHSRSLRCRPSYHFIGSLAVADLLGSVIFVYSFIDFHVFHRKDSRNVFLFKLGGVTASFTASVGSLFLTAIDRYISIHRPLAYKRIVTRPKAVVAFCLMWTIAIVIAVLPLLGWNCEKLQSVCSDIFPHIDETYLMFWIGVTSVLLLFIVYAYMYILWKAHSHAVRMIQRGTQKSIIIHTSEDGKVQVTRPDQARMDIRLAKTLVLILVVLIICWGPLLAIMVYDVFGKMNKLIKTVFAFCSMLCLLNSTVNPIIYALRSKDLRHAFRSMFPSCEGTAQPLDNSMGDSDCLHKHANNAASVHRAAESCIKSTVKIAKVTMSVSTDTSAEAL
Experimental: Cannabinoid receptor binding assays were used as a primary screening method to identify CB1 antagonist compounds. […] Briefly, human cannabinoid receptor protein bound to Chem-1 membrane was used in modified HEPES (pH 7.4) buffer. A 10 microgram (μg) aliquot of Chem-1 membrane, radioactively labeled [^3H] […] After incubation, the membranes were filtered and washed four times and then the filters were counted to determine amount of [^3H]

[3] = system: Rice α-glucosidase; assay: Rice α-Glucosidase inhibition assay; format: biochemical; conditions: 100 μg/ml
Experimental: Inhibition of rice α-glucosidase activity by each of the purified Kuwanon G and Albanin G compounds was measured as follows. […] The reaction was initiated with addition of 2 mM p-nitrophenyl a-D-glucopyanoside, incubated for another 90 minute at 70° C., and then terminated by adding of 1 M sodium carbonate. The end-product p-nitrophenol was measured by spectrophotometer.

[4] = target: T1, human CB1 receptor; assay: CB1 Antagonist Effect GPCR Functional Assay (cAMP); format: cell-based; conditions: for inhibition at 100 µM: read-out: CB1 Antagonist Inhibition
Experimental: (§1) In vitro efficacy and CB1 binding specificity of compounds isolated from Morus alba and Milicia excelsa were tested in the human CB1 receptor binding assay, and the agonist or antagonist function of the compounds was determined by measuring the effect on cAMP or agonist-induced cAMP modulation.
Following 10 min incubation at 37° C., the cells are lysed and the fluorescence acceptor (D2-labeled cAMP) and fluorescence donor (anti-cAMP antibody labeled with europium cryptate) are added. After 60 min at room temperature, the fluorescence transfer is measured at λex=337 nm and λem=620 nm and 665 nm using a microplate reader (Rubystar, BMG). The cAMP concentration is determined by dividing the signal measured at 665 nm by that measured at 620 nm (ratio).

[5] = DPPH anti-oxidation test
Experimental: The DPPH radical has a violet color in solution, but changes to light yellow or colorless when reduced to DPPH-H (2,2-diphenyl-1-picrylhydrazin) after reaction with free radicals. The color change can be followed spectrophotometrically at 517 nm to determine the anti-oxidative potential of a composition. Briefly, a 0.2 mM solution of DPPH in DMSO was mixed with each test sample at concentrations of 20, 40, 80 and 160 μg/ml. Ascorbic acid was used as a positive control. After a 30 minute incubation in the dark, the color change (i.e., decrease in absorbance) was measured at 517 nm in a spectrophotometer.

[6] = system: 3T3-L1 adipocytes; assay: Lipolysis (free glycerol released) in mature 3T3-L1 adipocytes; format: cell-based, Mouse; conditions: 10 μM
Experimental: Isoproterenol (10 μM) was used as a positive control. The conditioned medium was recovered and free glycerol released was assayed by using a lipolysis assay kit (Sigma-Aldrich Inc., USA) following the manufacturer's instructions.

[7] = target: T1, human CB1 receptor; assay: CB1 Agonist Effect GPCR Functional Assay (cAMP); format: cell-based
Experimental: as §1
Following a 10 minute incubation at 37° C., the cells are lysed and the fluorescence acceptor (D2-labeled cAMP) and fluorescence donor (anti-cAMP antibody labeled with europium cryptate) were added. After 60 min at room temperature, the fluorescence transfer is measured at λex=337 nm and λem=620 nm and 665 nm using a microplate reader (Rubystar, BMG). The cAMP concentration is determined by dividing the signal measured at 665 nm by that measured at 620 nm (ratio).

[8] = system: 3T3-L1 adipocytes; assay: Lipid accumulation in 3T3-L1 adipocytes (Oil-Red O); format: cell-based, Mouse; conditions: 10 ng/ml
Experimental: Briefly, 3T3 L1cells (American Type Culture Collection) were cultured in Dulbecco's modified Eagle's medium (DMEM) (GIBCO) containing 10% bovine calf serum until confluent. Two days post-confluence (DO), cells were stimulated to differentiate with DMEM containing 10% fetal bovine serum (FBS), 5 μg/ml insulin, 0.5 mM 3-isobutyl-1-methylxanthine (IBMX) and 1 μM dexamethasone for two days (D2).
Differentiated cells were then maintained in 10% FBS/DMEM medium with 5 μg/ml insulin for another two days (D4), followed by culturing with 10% FBS/DMEM medium for four days (D8).
To examine lipid accumulation, four different concentrations of Composition 3 (40, 80, 120 and 160 ug/ml) were tested with medium from Days 0 to 8 of adipogenesis. The culture medium was replaced every two days, and the cells were stained with Oil-Red O on Day 8.

[9] = system: 3T3-L1 cells; assay: Intracellular triglyceride accumulation in differentiating 3T3-L1 cells; format: cell-based, Mouse; conditions: 10 ng/ml; 8 days differentiation
Experimental: The cells were washed with PBS, scraped with homogenizing solution, residual cell lysate was centrifuged at 3,000 g for 5 minutes to remove fat layers, and the supernatants were assayed for triglyceride levels.

Chain of human cannabinoid CB2 receptor protein (P34972 whole entry): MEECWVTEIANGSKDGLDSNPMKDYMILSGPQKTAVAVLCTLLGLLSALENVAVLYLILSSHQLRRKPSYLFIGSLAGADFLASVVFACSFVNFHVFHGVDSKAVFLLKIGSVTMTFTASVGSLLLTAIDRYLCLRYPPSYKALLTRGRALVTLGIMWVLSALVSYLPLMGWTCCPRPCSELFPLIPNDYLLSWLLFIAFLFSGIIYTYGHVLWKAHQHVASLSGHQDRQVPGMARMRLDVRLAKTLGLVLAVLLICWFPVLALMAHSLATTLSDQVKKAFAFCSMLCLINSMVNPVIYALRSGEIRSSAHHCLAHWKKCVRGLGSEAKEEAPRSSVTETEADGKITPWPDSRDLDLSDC

CC(C)=CCc1c(O)ccc(C(=O)C2C(c3c(O)cc(O)c4c(=O)c(CC=C(C)C)c(-c5ccc(O)cc5O)oc34)C=C(C)CC2c2ccc(O)cc2O)c1O (centres unmarked) [Albanin G]
pIC50 [1]: 5.18
pIC50 [2]: 7.00
inhibition at 20 µg/mL ([2]; 20 μg/ml): 96%
CB1 selectivity over CB2 [2]: CB1 selective inhibitors
% Inhibition Rice α-glucosidase [3]: 66%
CB1 receptor functional behavior (antagonist) [4]: modest antagonist-like activity
inhibition at 100 µM ([4]; at 100 μM): 17%

O=C1O[C@H]([C@@H](O)CO)C(O)=C1O [Ascorbic acid]
DPPH Inhibition (%) ([5]; 20 μg/ml): 50.8 ± 0.83%
DPPH Inhibition (%) ([5]; 40 μg/ml): 53.6 ± 1.72%
DPPH Inhibition (%) ([5]; 80 μg/ml): 64.2 ± 0.86%
DPPH Inhibition (%) ([5]; 160 μg/ml): 76.6 ± 0.30%

CC(C)NCC(O)c1ccc(O)c(O)c1 (centres unmarked) [Isoproterenol]
Lipolysis, % of Control ([6]; 24 hrs): 464.2 % of Control
Lipolysis, % of Control ([6]; 48 hrs): 525.0 % of Control

CC(C)=CCc1c(-c2ccc(O)cc2O)oc2c(C3C=C(C)CC(c4ccc(O)cc4O)C3C(=O)c3ccc(O)cc3O)c(O)cc(O)c2c1=O (centres unmarked) [Kuwanon G]
pIC50 [1]: 4.54
pIC50 [2]: 5.00
% Inhibition CB1-Binding ([2]; 20 μg/ml): 92%
CB1 selectivity over CB2 [2]: CB1 selective inhibitors
% Inhibition Rice α-glucosidase [3]: −22%
CB1 receptor functional behavior (agonist) [7]: agonist-like behavior instead of antagonist
pEC50 [7]: 4.07
CB1 Antagonist Inhibition ([4]; at 100 μM): −1%

CC(C)=CCC12Oc3c(c(O)cc(O)c3C3C=C(C)CC(c4ccc(O)cc4O)C3C(=O)c3ccc(O)cc3O)C(=O)C1(O)Oc1cc(O)ccc12 (centres unmarked) [Sanggenon, Sanggenon C/D/]
pIC50 [1]: 4.62
pIC50 [2]: 5.46
CB1 selectivity over CB2 [2]: CB1 selectivity over the CB2 receptor protein
inhibition at 20 µg/mL [2]: 96%
CB1 receptor functional behavior (agonist) [7]: agonist-like behavior instead of antagonist
pEC50 [7]: 4.51
inhibition at 100 µM [4]: -14%

TNF-α
Inhibition (%) of lipid accumulation ([8]; Table 159, Oil-Red O Day 8): 61.0%
Inhibition (%) of lipid accumulation ([8]; Table 160): 68.9%
Inhibition (%) of lipid accumulation ([8]; Table 161): 74.1 ± 6.06%
Inhibition (%) of intracellular triglyceride accumulation [9]: 19.4%
